Source: US12522583B2, “Benzimidazole derivatives and aza-benzimidazole derivatives as Janus kinase 2 inhibitors and uses thereof” (Dana-Farber Cancer Institute, Inc., priority 2018, dated 2026)

Legend:
Test in all cases: KINOMEscan
Type in all cases: binding
[1] = molecular target: CDK4 (Homo sapiens (Human), UniProt P11802); conditions: read-out: percent control
From the text: (§1) Example 2. In Vitro Kinase Selectivity Profiling of the Compounds of the Present Disclosure

[2] = molecular target: CDK7 (Homo sapiens (Human), UniProt P50613); conditions: read-out: percent control
From the text: as §1

[3] = molecular target: MET(M1250T) (Homo sapiens (Human), UniProt P08581, M1250T); conditions: read-out: percent control
From the text: as §1

[4] = molecular target: SBK1 (Homo sapiens (Human), UniProt Q52WX2); conditions: read-out: percent control
From the text: as §1

[5] = molecular target: PRKCI (Homo sapiens (Human), UniProt P41743); conditions: read-out: percent control
From the text: as §1

[6] = molecular target: PIKFYVE (Homo sapiens (Human), UniProt Q9Y2I7); conditions: read-out: percent control
From the text: as §1

[7] = molecular target: PFPK5(P.falciparum) (Plasmodium falciparum (isolate 3D7), UniProt P61075); conditions: read-out: percent control
From the text: as §1

[8] = molecular target: GCN2(Kin.Dom.2, S808G) (Homo sapiens, UniProt Q9P2K8, S808G); conditions: read-out: percent control
From the text: as §1

[9] = molecular target: HIPK1 (Homo sapiens (Human), UniProt Q86Z02); conditions: read-out: percent control
From the text: as §1

[10] = molecular target: MAP4K5 (Homo sapiens (Human), UniProt Q9Y4K4); conditions: read-out: percent control
From the text: as §1

[11] = molecular target: MEK2 (Homo sapiens (Human), UniProt P36507); conditions: read-out: percent control
From the text: as §1

[12] = molecular target: MAP3K4 (Homo sapiens (Human), UniProt Q9Y6R4); conditions: read-out: percent control
From the text: as §1

[13] = molecular target: DCAMKL1 (Homo sapiens (Human), UniProt O15075); conditions: read-out: percent control
From the text: as §1

[14] = molecular target: SNARK (Homo sapiens (Human), UniProt Q9H093); conditions: read-out: percent control
From the text: as §1

[15] = test system: FLT3(ITD, D835V); conditions: 1 μM
From the text: as §1

[16] = molecular target: GRK4 (Homo sapiens (Human), UniProt P32298); conditions: read-out: percent control
From the text: as §1

[17] = molecular target: ULK1 (Homo sapiens (Human), UniProt O75385); conditions: read-out: percent control
From the text: as §1

[18] = molecular target: PKAC-beta (Homo sapiens (Human), UniProt P22694); conditions: read-out: percent control
From the text: as §1

[19] = molecular target: RET(V804M) (Homo sapiens (Human), UniProt P07949, V804M); conditions: read-out: percent control
From the text: as §1

[20] = molecular target: PCTK2 (Homo sapiens (Human), UniProt Q00537); conditions: read-out: percent control
From the text: as §1

[21] = molecular target: MAPKAPK2 (Homo sapiens (Human), UniProt P49137); conditions: read-out: percent control
From the text: as §1

[22] = molecular target: MYO3A (Homo sapiens (Human), UniProt Q8NEV4); conditions: read-out: percent control
From the text: as §1

[23] = molecular target: RIPK2 (Homo sapiens (Human), UniProt O43353); conditions: read-out: percent control
From the text: as §1

[24] = molecular target: ACVR1 (Homo sapiens (Human), UniProt Q04771); conditions: read-out: percent control
From the text: as §1

[25] = molecular target: ABL1(Q252H)-nonphosphorylated (Homo sapiens (Human), UniProt P00519, Q252H); conditions: read-out: percent control
From the text: as §1

[26] = molecular target: MST2 (Homo sapiens (Human), UniProt Q13188); conditions: read-out: percent control
From the text: as §1

[27] = test system: FLT3(ITD, F691L); conditions: 1 μM
From the text: as §1

[28] = molecular target: STK33 (Homo sapiens (Human), UniProt Q9BYT3); conditions: read-out: percent control
From the text: as §1

[29] = molecular target: CSNK2A1 (Homo sapiens (Human), UniProt P68400); conditions: read-out: percent control
From the text: as §1

[30] = molecular target: NLK (Homo sapiens (Human), UniProt Q9UBE8); conditions: read-out: percent control
From the text: as §1

[31] = molecular target: ABL1(T315I)-nonphosphorylated (Homo sapiens (Human), UniProt P00519, T315I); conditions: read-out: percent control
From the text: as §1

[32] = molecular target: CAMK1D (Homo sapiens (Human), UniProt Q8IU85); conditions: read-out: percent control
From the text: as §1

[33] = molecular target: ERBB4 (Homo sapiens (Human), UniProt Q15303); conditions: read-out: percent control
From the text: as §1

[34] = molecular target: PIK3C2G (Homo sapiens (Human), UniProt O75747); conditions: read-out: percent control
From the text: as §1

[35] = molecular target: YSK4 (Homo sapiens (Human), UniProt Q56UN5); conditions: read-out: percent control
From the text: as §1

[36] = molecular target: ACVRL1 (Homo sapiens (Human), UniProt P37023); conditions: read-out: percent control
From the text: as §1

[37] = molecular target: LATS1 (Homo sapiens (Human), UniProt O95835); conditions: read-out: percent control
From the text: as §1

[38] = molecular target: TAOK3 (Homo sapiens (Human), UniProt Q9H2K8); conditions: read-out: percent control
From the text: as §1

[39] = molecular target: PIP5K2B (Homo sapiens (Human), UniProt P78356); conditions: read-out: percent control
From the text: as §1

[40] = molecular target: ABL1(Y253F)-phosphorylated (Homo sapiens (Human), UniProt P00519, Y253F); conditions: read-out: percent control
From the text: as §1

Chain of LATS1 (O95835 whole entry): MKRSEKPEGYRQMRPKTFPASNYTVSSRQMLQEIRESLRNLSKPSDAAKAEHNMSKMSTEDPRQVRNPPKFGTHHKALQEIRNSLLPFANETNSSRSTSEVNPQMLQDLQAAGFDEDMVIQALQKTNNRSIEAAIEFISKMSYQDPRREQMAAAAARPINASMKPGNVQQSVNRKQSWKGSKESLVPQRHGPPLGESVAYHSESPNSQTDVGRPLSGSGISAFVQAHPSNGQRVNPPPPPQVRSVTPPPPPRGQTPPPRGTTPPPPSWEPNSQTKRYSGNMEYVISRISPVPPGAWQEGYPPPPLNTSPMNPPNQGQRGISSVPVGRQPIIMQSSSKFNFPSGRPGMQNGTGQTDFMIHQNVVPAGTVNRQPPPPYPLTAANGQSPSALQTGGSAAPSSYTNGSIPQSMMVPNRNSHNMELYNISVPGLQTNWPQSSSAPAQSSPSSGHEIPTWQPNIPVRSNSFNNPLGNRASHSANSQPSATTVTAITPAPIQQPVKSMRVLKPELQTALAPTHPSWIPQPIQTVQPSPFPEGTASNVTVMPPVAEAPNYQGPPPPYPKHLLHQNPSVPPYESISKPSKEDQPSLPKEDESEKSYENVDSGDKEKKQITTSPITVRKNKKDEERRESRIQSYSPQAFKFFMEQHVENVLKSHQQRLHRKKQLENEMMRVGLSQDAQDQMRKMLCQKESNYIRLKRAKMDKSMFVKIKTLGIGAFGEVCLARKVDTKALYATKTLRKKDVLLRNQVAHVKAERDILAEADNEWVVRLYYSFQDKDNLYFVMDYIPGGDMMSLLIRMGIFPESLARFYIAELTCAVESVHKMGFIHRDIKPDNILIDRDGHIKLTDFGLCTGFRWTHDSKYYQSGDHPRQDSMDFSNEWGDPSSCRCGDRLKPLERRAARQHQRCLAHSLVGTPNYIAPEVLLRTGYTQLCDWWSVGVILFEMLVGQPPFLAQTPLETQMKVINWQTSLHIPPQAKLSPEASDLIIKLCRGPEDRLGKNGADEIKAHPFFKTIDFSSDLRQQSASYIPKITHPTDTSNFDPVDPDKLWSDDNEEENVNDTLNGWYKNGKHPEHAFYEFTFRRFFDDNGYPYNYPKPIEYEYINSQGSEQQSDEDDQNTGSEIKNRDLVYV
Chain of MYO3A (Q8NEV4 whole entry): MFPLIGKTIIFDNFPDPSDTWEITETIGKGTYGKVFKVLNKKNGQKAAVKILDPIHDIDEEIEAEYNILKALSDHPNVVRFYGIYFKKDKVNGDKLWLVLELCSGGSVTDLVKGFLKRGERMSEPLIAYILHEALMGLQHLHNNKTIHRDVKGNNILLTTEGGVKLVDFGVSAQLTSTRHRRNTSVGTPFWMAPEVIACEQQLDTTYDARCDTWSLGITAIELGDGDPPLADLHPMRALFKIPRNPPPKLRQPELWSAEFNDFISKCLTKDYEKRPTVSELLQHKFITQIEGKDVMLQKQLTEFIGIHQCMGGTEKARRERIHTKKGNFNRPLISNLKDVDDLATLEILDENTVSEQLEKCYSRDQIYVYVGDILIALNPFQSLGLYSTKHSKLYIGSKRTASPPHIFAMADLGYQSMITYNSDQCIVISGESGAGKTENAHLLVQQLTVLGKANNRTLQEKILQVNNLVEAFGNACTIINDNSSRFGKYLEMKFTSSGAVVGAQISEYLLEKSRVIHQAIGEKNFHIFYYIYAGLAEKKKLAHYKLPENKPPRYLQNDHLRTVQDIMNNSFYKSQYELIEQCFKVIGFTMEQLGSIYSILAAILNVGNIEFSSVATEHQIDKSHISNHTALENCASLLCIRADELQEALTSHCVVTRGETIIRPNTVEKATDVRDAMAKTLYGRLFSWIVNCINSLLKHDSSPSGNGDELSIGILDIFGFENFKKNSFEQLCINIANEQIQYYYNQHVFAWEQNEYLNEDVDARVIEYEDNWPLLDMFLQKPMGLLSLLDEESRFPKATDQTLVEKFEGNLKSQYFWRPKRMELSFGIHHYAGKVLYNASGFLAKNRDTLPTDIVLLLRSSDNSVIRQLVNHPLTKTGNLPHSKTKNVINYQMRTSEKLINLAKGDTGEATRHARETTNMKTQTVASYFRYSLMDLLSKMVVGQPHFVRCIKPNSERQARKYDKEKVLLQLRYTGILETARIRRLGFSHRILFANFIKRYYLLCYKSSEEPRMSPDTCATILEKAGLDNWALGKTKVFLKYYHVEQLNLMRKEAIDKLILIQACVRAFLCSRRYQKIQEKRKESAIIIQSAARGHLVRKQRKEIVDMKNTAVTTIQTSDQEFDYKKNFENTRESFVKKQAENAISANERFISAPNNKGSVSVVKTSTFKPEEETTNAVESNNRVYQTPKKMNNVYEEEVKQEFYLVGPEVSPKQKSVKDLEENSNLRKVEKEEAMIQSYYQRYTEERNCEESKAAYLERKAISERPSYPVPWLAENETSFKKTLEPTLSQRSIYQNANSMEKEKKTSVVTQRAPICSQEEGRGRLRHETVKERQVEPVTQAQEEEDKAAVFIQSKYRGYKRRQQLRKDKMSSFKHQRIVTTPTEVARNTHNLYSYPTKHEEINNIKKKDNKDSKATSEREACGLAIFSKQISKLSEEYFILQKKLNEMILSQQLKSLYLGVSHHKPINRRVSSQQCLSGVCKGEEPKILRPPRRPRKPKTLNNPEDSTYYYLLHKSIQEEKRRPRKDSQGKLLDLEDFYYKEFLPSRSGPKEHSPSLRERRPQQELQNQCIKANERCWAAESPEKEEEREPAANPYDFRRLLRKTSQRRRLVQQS
Chain of STK33 (Q9BYT3 whole entry): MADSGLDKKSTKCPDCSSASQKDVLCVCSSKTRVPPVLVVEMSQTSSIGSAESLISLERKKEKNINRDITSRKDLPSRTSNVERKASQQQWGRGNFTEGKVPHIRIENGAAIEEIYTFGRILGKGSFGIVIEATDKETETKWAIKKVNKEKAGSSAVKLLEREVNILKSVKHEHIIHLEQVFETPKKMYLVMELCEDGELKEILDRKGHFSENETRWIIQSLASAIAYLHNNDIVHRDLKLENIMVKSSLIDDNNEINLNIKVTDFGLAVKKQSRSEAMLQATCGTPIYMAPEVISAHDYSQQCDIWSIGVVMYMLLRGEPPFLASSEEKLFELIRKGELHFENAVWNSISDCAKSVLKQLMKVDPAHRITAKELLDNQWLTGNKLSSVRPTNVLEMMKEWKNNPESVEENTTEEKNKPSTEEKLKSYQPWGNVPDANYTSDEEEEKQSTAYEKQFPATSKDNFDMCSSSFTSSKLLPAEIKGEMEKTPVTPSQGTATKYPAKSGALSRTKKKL
Chain of CSNK2A1 (P68400 whole entry): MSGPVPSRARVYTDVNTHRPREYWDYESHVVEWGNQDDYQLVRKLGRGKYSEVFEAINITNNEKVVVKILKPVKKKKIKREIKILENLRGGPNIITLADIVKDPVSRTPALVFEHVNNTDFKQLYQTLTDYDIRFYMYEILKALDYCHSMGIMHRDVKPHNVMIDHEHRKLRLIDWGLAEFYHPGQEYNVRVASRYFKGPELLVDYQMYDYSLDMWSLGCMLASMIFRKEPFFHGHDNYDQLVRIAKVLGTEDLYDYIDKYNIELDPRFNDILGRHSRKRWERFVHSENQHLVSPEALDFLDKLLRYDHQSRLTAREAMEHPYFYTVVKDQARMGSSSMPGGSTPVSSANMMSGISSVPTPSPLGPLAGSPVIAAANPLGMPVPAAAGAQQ
Chain of CDK7 (P50613 whole entry): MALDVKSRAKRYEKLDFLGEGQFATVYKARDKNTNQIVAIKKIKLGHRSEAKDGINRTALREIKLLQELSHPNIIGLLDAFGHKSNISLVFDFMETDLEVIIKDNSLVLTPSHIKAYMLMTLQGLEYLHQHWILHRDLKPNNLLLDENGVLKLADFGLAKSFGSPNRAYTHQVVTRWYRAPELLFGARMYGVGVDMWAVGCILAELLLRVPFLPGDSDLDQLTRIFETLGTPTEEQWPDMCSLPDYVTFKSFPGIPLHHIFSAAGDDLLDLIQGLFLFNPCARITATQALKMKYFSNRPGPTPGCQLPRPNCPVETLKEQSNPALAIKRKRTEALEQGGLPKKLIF
Chain of ACVRL1 (P37023 22-503): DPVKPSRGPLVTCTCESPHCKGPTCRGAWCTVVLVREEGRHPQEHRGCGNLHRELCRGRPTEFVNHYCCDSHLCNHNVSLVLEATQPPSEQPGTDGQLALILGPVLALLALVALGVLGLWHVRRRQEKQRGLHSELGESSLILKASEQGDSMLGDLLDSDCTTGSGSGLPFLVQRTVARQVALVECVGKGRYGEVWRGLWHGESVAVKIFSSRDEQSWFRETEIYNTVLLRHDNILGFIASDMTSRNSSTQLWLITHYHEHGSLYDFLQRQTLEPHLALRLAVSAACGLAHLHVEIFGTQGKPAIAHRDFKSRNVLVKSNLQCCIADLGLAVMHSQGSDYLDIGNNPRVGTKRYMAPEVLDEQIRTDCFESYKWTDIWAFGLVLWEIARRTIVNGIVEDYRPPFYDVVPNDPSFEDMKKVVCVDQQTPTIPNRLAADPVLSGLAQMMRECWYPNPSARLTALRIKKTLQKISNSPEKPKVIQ
Chain of RIPK2 (O43353 whole entry): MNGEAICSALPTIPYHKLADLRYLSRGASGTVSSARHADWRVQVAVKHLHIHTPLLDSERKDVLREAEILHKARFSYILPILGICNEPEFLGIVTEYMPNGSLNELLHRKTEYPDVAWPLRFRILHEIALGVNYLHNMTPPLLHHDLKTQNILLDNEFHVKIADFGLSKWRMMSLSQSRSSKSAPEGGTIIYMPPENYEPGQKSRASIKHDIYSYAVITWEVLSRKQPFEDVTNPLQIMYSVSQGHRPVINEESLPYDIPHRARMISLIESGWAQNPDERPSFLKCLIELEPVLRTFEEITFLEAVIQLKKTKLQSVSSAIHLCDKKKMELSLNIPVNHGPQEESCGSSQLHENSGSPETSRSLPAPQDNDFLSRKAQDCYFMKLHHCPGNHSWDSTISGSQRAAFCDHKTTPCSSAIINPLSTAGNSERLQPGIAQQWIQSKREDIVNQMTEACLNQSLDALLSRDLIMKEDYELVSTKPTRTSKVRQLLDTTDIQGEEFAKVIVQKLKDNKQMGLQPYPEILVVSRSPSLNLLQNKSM

CCN1CCN(Cc2ccc(Nc3nc4ccc(Oc5ccnc(NC(C)=O)c5)cc4n3C)cc2C(F)(F)F)CC1 [Compound I-2]
remaining binding at 1 µM [1]: 94% | remaining binding at 1 µM [2]: 45% | remaining binding at 1 µM [3]: 63% | remaining binding at 1 µM [4]: 84% | remaining binding at 1 µM [5]: 95% | remaining binding at 1 µM [6]: 80% | remaining binding at 1 µM [7]: 100% | remaining binding at 1 µM [8]: 28% | remaining binding at 1 µM [9]: 56% | remaining binding at 1 µM [10]: 89% | remaining binding at 1 µM [11]: 77% | remaining binding at 1 µM [12]: 100% | remaining binding at 1 µM [13]: 91% | remaining binding at 1 µM [14]: 100% | percent control [15]: 100% | remaining binding at 1 µM [16]: 99% | remaining binding at 1 µM [17]: 100% | remaining binding at 1 µM [18]: 94% | remaining binding at 1 µM [19]: 9.9% | remaining binding at 1 µM [20]: 91% | remaining binding at 1 µM [21]: 78% | remaining binding at 1 µM [22]: 96% | remaining binding at 1 µM [23]: 94% | remaining binding at 1 µM [24]: 99% | remaining binding at 1 µM [25]: 0% | remaining binding at 1 µM [26]: 81% | percent control [27]: 34% | remaining binding at 1 µM [28]: 76% | remaining binding at 1 µM [29]: 66% | remaining binding at 1 µM [30]: 84% | remaining binding at 1 µM [31]: 46% | remaining binding at 1 µM [32]: 85% | remaining binding at 1 µM [33]: 84% | remaining binding at 1 µM [34]: 80% | remaining binding at 1 µM [35]: 51% | remaining binding at 1 µM [36]: 85% | remaining binding at 1 µM [37]: 42% | remaining binding at 1 µM [38]: 41% | remaining binding at 1 µM [39]: 57% | remaining binding at 1 µM [40]: 44%

CCN1CCN(Cc2ccc(Nc3nc4ccc(Oc5ccnc(NC(C)=O)c5)c(C)c4n3C)cc2C(F)(F)F)CC1 [Compound I-6, N-(4-(2-(4-((4-ethylpiperazin-1-yl)methyl)-3-(trifluoromethyl)phenylamino)-1,7-dimethyl-1H-benzo[d]imidazol-6-yloxy)pyridin-2-yl)acetamide]
remaining binding at 1 µM [1]: 92% | remaining binding at 1 µM [2]: 15% | remaining binding at 1 µM [3]: 33% | remaining binding at 1 µM [4]: 89% | remaining binding at 1 µM [5]: 71% | remaining binding at 1 µM [6]: 93% | remaining binding at 1 µM [7]: 91% | remaining binding at 1 µM [8]: 44% | remaining binding at 1 µM [9]: 81% | remaining binding at 1 µM [10]: 88% | remaining binding at 1 µM [11]: 100% | remaining binding at 1 µM [12]: 60% | remaining binding at 1 µM [13]: 69% | remaining binding at 1 µM [14]: 100% | percent control [15]: 61% | remaining binding at 1 µM [16]: 81% | remaining binding at 1 µM [17]: 56% | remaining binding at 1 µM [18]: 86% | remaining binding at 1 µM [19]: 4.5% | remaining binding at 1 µM [20]: 35% | remaining binding at 1 µM [21]: 100% | remaining binding at 1 µM [22]: 99% | remaining binding at 1 µM [23]: 82% | remaining binding at 1 µM [24]: 100% | remaining binding at 1 µM [25]: 1.9% | remaining binding at 1 µM [26]: 58% | percent control [27]: 46% | remaining binding at 1 µM [28]: 66% | remaining binding at 1 µM [29]: 91% | remaining binding at 1 µM [30]: 40% | remaining binding at 1 µM [31]: 32% | remaining binding at 1 µM [32]: 100% | remaining binding at 1 µM [33]: 94% | remaining binding at 1 µM [34]: 86% | remaining binding at 1 µM [35]: 67% | remaining binding at 1 µM [36]: 93% | remaining binding at 1 µM [37]: 95% | remaining binding at 1 µM [38]: 13% | remaining binding at 1 µM [39]: 98% | remaining binding at 1 µM [40]: 5.5%
